From ChEMBL document CHEMBL3885881, “DrugMatrix”

Species: Rattus norvegicus
Assay: DrugMatrix - Regimen: Daily Repeat
Format: toxicity, organism-based, Sprague-Dawley
Design: regimen Daily Repeat, gender Male, age 6-8 weeks
Conditions: in vivo, po, route oral GAVAGE, vehicle .5 % CMC; for ABSOLUTE BASOPHIL / ABSOLUTE EOSINOPHIL / ABSOLUTE LYMPHOCYTE / ABSOLUTE MONOCYTE / ABSOLUTE SEGMENTED NEUTROPHIL / BASOPHIL / EOSINOPHIL / ERYTHROCYTE COUNT / HEMATOCRIT / HEMOGLOBIN / LEUKOCYTE COUNT / LYMPHOCYTE / MEAN CORPUSCULAR HEMOGLOBIN / MEAN CORPUSCULAR HEMOGLOBIN CONCENTRATION / MEAN CORPUSCULAR VOLUME / MONOCYTE / NEUTROPHIL / NUCLEATED RED BLOOD CELLS / PLATELET COUNT: tissue Blood; for ALANINE AMINOTRANSFERASE / ALBUMIN / ALKALINE PHOSPHATASE / ASPARTATE AMINOTRANSFERASE / BLOOD UREA NITROGEN / CARBON DIOXIDE / CHLORIDE / CHOLESTEROL / CREATINE PHOSPHOKINASE / CREATININE / GLUCOSE / LACTATE DEHYDROGENASE / LIPASE / PHOSPHORUS / POTASSIUM / SODIUM / TOTAL BILIRUBIN / TOTAL PROTEIN / URIC ACID: tissue Plasma
[1] = 0.006 mg/kg, 72 h, dose level Low, time 3 day
[2] = 0.006 mg/kg, 120 h, dose level Low, time 5 day
[3] = 0.04 mg/kg, 72 h, dose level High, time 3 day
[4] = 0.04 mg/kg, 120 h, dose level High, time 5 day

`C=C1/C(=C\C=C2/CCC[C@]3(C)[C@@H]([C@H](C)CCCC(C)(C)O)CC[C@@H]23)C[C@@H](O)C[C@@H]1O` [CALCITRIOL] was tested, and the “ABSOLUTE BASOPHIL” value [1] was 0 CELLS/uL, the “ABSOLUTE EOSINOPHIL” value [1] was 45.67 CELLS/uL and the “ABSOLUTE LYMPHOCYTE” value [1] was 10032.33 CELLS/uL. For the same molecule, the “ABSOLUTE MONOCYTE” value [1] was 329.67 CELLS/uL, the “ABSOLUTE SEGMENTED NEUTROPHIL” value [1] was 1592.33 CELLS/uL and the BASOPHIL [1] was 0%. The EOSINOPHIL [1] was 0.33%, the “ERYTHROCYTE COUNT” value [1] was 5.61 x10E6/uL and the HEMATOCRIT [1] was 34.07%. The HEMOGLOBIN [1] was 13.17 G/DL, the “LEUKOCYTE COUNT” value [1] was 12 x10E3/uL and the LYMPHOCYTE [1] was 84%. For the same molecule, the “MEAN CORPUSCULAR HEMOGLOBIN” value [1] was 23.57 pg, the “MEAN CORPUSCULAR HEMOGLOBIN CONCENTRATION” value [1] was 38.7 G/DL and the “MEAN CORPUSCULAR VOLUME” value [1] was 60.93 fL. The MONOCYTE [1] was 2.67%, the NEUTROPHIL [1] was 13% and the “NUCLEATED RED BLOOD CELLS” value [1] was 0 /100WBC. The “PLATELET COUNT” value [1] was 1046.67 x10E3/uL, the “ALANINE AMINOTRANSFERASE” value [1] was 66.67 u/L and the ALBUMIN [1] was 3.93 G/DL. The “ALKALINE PHOSPHATASE” value [1] was 358 u/L, the “ASPARTATE AMINOTRANSFERASE” value [1] was 93.67 u/L and the “BLOOD UREA NITROGEN” value [1] was 17 mg/dL. For the same molecule, the “CARBON DIOXIDE” value [1] was 25.33 mmol/L, the CHLORIDE [1] was 101.33 MEQ/L and the CHOLESTEROL [1] was 73 mg/dL. For the same molecule, the “CREATINE PHOSPHOKINASE” value [1] was 357 u/L, the CREATININE [1] was 0.21 mg/dL and the GLUCOSE [1] was 146.67 mg/dL. For the same molecule, the “LACTATE DEHYDROGENASE” value [1] was 503.33 u/L, the LIPASE [1] was 11 u/L and the PHOSPHORUS [1] was 13.67 mg/dL. For the same molecule, the POTASSIUM [1] was 6.19 MEQ/L, the SODIUM [1] was 143.5 MEQ/L and the “TOTAL BILIRUBIN” value [1] was 0.17 mg/dL. For the same molecule, the “TOTAL PROTEIN” value [1] was 5.8 G/DL, the “URIC ACID” value [1] was 1.47 mg/dL and the “ABSOLUTE BASOPHIL” value [2] was 0 CELLS/uL. The “ABSOLUTE EOSINOPHIL” value [2] was 0 CELLS/uL, the “ABSOLUTE LYMPHOCYTE” value [2] was 11413 CELLS/uL and the “ABSOLUTE MONOCYTE” value [2] was 402.33 CELLS/uL. For the same molecule, the “ABSOLUTE SEGMENTED NEUTROPHIL” value [2] was 1784.67 CELLS/uL, the BASOPHIL [2] was 0% and the EOSINOPHIL [2] was 0%. The “ERYTHROCYTE COUNT” value [2] was 5.87 x10E6/uL, the HEMATOCRIT [2] was 34.33% and the HEMOGLOBIN [2] was 13.57 G/DL. The “LEUKOCYTE COUNT” value [2] was 13.6 x10E3/uL, the LYMPHOCYTE [2] was 84% and the “MEAN CORPUSCULAR HEMOGLOBIN” value [2] was 23.17 pg. The “MEAN CORPUSCULAR HEMOGLOBIN CONCENTRATION” value [2] was 39.53 G/DL, the “MEAN CORPUSCULAR VOLUME” value [2] was 58.53 fL and the MONOCYTE [2] was 3%. The NEUTROPHIL [2] was 13%, the “NUCLEATED RED BLOOD CELLS” value [2] was 0 /100WBC and the “PLATELET COUNT” value [2] was 1088.67 x10E3/uL. For the same molecule, the “ALANINE AMINOTRANSFERASE” value [2] was 57.33 u/L, the ALBUMIN [2] was 4.37 G/DL and the “ALKALINE PHOSPHATASE” value [2] was 445.33 u/L. For the same molecule, the “ASPARTATE AMINOTRANSFERASE” value [2] was 99.67 u/L, the “BLOOD UREA NITROGEN” value [2] was 19 mg/dL and the “CARBON DIOXIDE” value [2] was 31.33 mmol/L. For the same molecule, the CHLORIDE [2] was 95.33 MEQ/L, the CHOLESTEROL [2] was 61 mg/dL and the “CREATINE PHOSPHOKINASE” value [2] was 435 u/L. The CREATININE [2] was 0.17 mg/dL, the GLUCOSE [2] was 145 mg/dL and the “LACTATE DEHYDROGENASE” value [2] was 606.67 u/L. It also gave an LIPASE [2] of 10.33 u/L, a PHOSPHORUS [2] of 11.6 mg/dL and a POTASSIUM [2] of 5.78 MEQ/L. For the same molecule, the SODIUM [2] was 141.37 MEQ/L, the “TOTAL BILIRUBIN” value [2] was 0.13 mg/dL and the “TOTAL PROTEIN” value [2] was 6.37 G/DL. For the same molecule, the “URIC ACID” value [2] was 1.6 mg/dL, the “ABSOLUTE BASOPHIL” value [3] was 0 CELLS/uL and the “ABSOLUTE EOSINOPHIL” value [3] was 117 CELLS/uL. For the same molecule, the “ABSOLUTE LYMPHOCYTE” value [3] was 9651 CELLS/uL, the “ABSOLUTE MONOCYTE” value [3] was 117 CELLS/uL and the “ABSOLUTE SEGMENTED NEUTROPHIL” value [3] was 6315 CELLS/uL. For the same molecule, the BASOPHIL [3] was 0%, the EOSINOPHIL [3] was 0.67% and the “ERYTHROCYTE COUNT” value [3] was 6 x10E6/uL. The HEMATOCRIT [3] was 37.07%, the HEMOGLOBIN [3] was 14.33 G/DL and the “LEUKOCYTE COUNT” value [3] was 16.2 x10E3/uL. For the same molecule, the LYMPHOCYTE [3] was 57.67%, the “MEAN CORPUSCULAR HEMOGLOBIN” value [3] was 23.93 pg and the “MEAN CORPUSCULAR HEMOGLOBIN CONCENTRATION” value [3] was 38.67 G/DL. For the same molecule, the “MEAN CORPUSCULAR VOLUME” value [3] was 62 fL, the MONOCYTE [3] was 0.67% and the NEUTROPHIL [3] was 41%. For the same molecule, the “NUCLEATED RED BLOOD CELLS” value [3] was 0 /100WBC, the “PLATELET COUNT” value [3] was 1193.33 x10E3/uL and the “ALANINE AMINOTRANSFERASE” value [3] was 118.67 u/L. For the same molecule, the ALBUMIN [3] was 3.1 G/DL, the “ALKALINE PHOSPHATASE” value [3] was 333 u/L and the “ASPARTATE AMINOTRANSFERASE” value [3] was 517.33 u/L. For the same molecule, the “BLOOD UREA NITROGEN” value [3] was 95 mg/dL, the “CARBON DIOXIDE” value [3] was 24 mmol/L and the CHLORIDE [3] was 100 MEQ/L. For the same molecule, the CHOLESTEROL [3] was 98.67 mg/dL, the “CREATINE PHOSPHOKINASE” value [3] was 1977.67 u/L and the CREATININE [3] was 1.67 mg/dL. For the same molecule, the GLUCOSE [3] was 129.67 mg/dL, the “LACTATE DEHYDROGENASE” value [3] was 1234.67 u/L and the LIPASE [3] was 10 u/L. The PHOSPHORUS [3] was 17.23 mg/dL, the POTASSIUM [3] was 5.62 MEQ/L and the SODIUM [3] was 140.85 MEQ/L. For the same molecule, the “TOTAL BILIRUBIN” value [3] was 0.2 mg/dL, the “TOTAL PROTEIN” value [3] was 5.9 G/DL and the “URIC ACID” value [3] was 1.93 mg/dL. The “ABSOLUTE BASOPHIL” value [4] was 0 CELLS/uL, the “ABSOLUTE EOSINOPHIL” value [4] was 37.4 CELLS/uL and the “ABSOLUTE LYMPHOCYTE” value [4] was 15678.4 CELLS/uL. For the same molecule, the “ABSOLUTE MONOCYTE” value [4] was 350.8 CELLS/uL, the “ABSOLUTE SEGMENTED NEUTROPHIL” value [4] was 1413.4 CELLS/uL and the BASOPHIL [4] was 0%. For the same molecule, the EOSINOPHIL [4] was 0.2%, the “ERYTHROCYTE COUNT” value [4] was 6.14 x10E6/uL and the HEMATOCRIT [4] was 35.74%. The HEMOGLOBIN [4] was 13.9 G/DL, the “LEUKOCYTE COUNT” value [4] was 17.48 x10E3/uL and the LYMPHOCYTE [4] was 89.8%. The “MEAN CORPUSCULAR HEMOGLOBIN” value [4] was 22.62 pg, the “MEAN CORPUSCULAR HEMOGLOBIN CONCENTRATION” value [4] was 38.88 G/DL and the “MEAN CORPUSCULAR VOLUME” value [4] was 58.22 fL. The MONOCYTE [4] was 2%, the NEUTROPHIL [4] was 8% and the “NUCLEATED RED BLOOD CELLS” value [4] was 0.2 /100WBC. For the same molecule, the “PLATELET COUNT” value [4] was 1031.8 x10E3/uL, the “ALANINE AMINOTRANSFERASE” value [4] was 34.8 u/L and the ALBUMIN [4] was 3.62 G/DL. The “ALKALINE PHOSPHATASE” value [4] was 233.8 u/L, the “ASPARTATE AMINOTRANSFERASE” value [4] was 68.4 u/L and the “BLOOD UREA NITROGEN” value [4] was 19.4 mg/dL. The “CARBON DIOXIDE” value [4] was 30.2 mmol/L, the CHLORIDE [4] was 98.6 MEQ/L and the CHOLESTEROL [4] was 99.6 mg/dL. For the same molecule, the “CREATINE PHOSPHOKINASE” value [4] was 347.4 u/L, the CREATININE [4] was 0.2 mg/dL and the GLUCOSE [4] was 143.4 mg/dL. For the same molecule, the “LACTATE DEHYDROGENASE” value [4] was 272.4 u/L, the LIPASE [4] was 9.2 u/L and the PHOSPHORUS [4] was 10.48 mg/dL. For the same molecule, the POTASSIUM [4] was 5.5 MEQ/L, the SODIUM [4] was 142.72 MEQ/L and the “TOTAL BILIRUBIN” value [4] was 0.1 mg/dL. For the same molecule, the “TOTAL PROTEIN” value [4] was 5.84 G/DL and the “URIC ACID” value [4] was 1.34 mg/dL.
